Experimental data from patent US20240358692A1, “TREATMENT OF SCLERODERMA” (Aisa Pharma, Inc., priority 2023, published 2024).

What was measured:
[1] = test system: participants with SSc-RP; test: SHAQ - Visual Analog Scale - Overall Disease Severity; format: in vivo, human; details: for % change overall SSc Disease Severity: SHAQ, mITT Part A
Text: (§1) The standard, validated, patient reported outcome measures tool for SSc patients, the Scleroderma Health Assessment Questionnaire (SHAQ), will be used to assess the participant qualify of life. Details are attached in the Appendix. The participant quality of life will be scored, and a disability index calculated for each questionnaire completed by the patient at Screening and each in-clinic visit. The absolute change in participant quality of life from baseline to the end of each dosing period will be calculated similar to frequency data as before.
(§2) The standard, validated, patient reported outcome measures tool for SSc patients, the SHAQ, was collected at the time points specified in the study schedules (FIG. 2 and FIGS. 4A and 4B) to assess the participant's quality of life. The SHAQ included a Raynaud's VAS that will also be reported separately.

[2] = test system: participants with SSc-RP; test: SHAQ - Visual Analog Scale - Breathing Problems; format: in vivo, human; details: Any Cilnidipine (N = 17); Day 12; PP Population, Part A; Subject 01-110 excluded
Text: as §1, §2

[3] = Any Cilnidipine (N = 17), Day 12, PP Population, Part A
[4] = Pooled Cilnidipine 10 mg and Cilnidipine 10 mg + Tadalafil 5 mg, PP, Part A
[5] = Pooled Cilnidipine 20 mg and Cilnidipine 20 mg + Tadalafil 5 mg, PP, Part A
[6] = Pooled Cilnidipine (N = 7), Day 12, Modified ITT Population - Part A
[7] = Pooled Cilnidipine (N = 8), Day 12, PP Population, Part A
[8] = Sensitivity Analysis (diagnosis of SSc), Modified ITT, Part A, Day 12, arms Cilnidipine 10 mg, Tadalafil 5 mg, Cilnidipine 10 mg + Tadalafil 5 mg
[9] = cilnidipine 10 mg (combination: + tadalafil 5 mg)
[10] = cilnidipine 20 mg (combination: + tadalafil 5 mg)

COCCOC(=O)C1=C(C)NC(C)=C(C(=O)OC/C=C/c2ccccc2)C1c1cccc([N+](=O)[O-])c1 (stereo not shown) [Cilnidipine]
SHAQ Visual Analogue Scale - Overall Disease Severity, Change from Baseline, Mean (SD) [1, 3]: −0.991 (1.0921) | SHAQ Visual Analogue Scale - Overall Disease Severity, Change from Baseline, Median [1, 3]: −1.100 | SHAQ Visual Analogue Scale - Overall Disease Severity, In-Clinic Visit (Day 12), Mean (SD) [1, 3]: 2.203 (2.1532) | SHAQ Visual Analogue Scale - Overall Disease Severity, In-Clinic Visit (Day 12), Median [1, 3]: 1.400 | SHAQ Visual Analogue Scale - Overall Disease Severity, Percent Change from Baseline, Mean (SD) [1, 3]: −36.33 (43.497) % | SHAQ Visual Analogue Scale - Overall Disease Severity, Percent Change from Baseline, Median [1, 3]: −42.89% | % change overall SSc Disease Severity ([1]; Cilnidipine 20 mg (n = 3)): −63% (i.e., | SHAQ Overall Scleroderma Disease Severity, mean % change ([1]; Cilnidipine 20 mg (n = 3), minus = improvement, Table A*): −63% | SHAQ VAS Overall Disease Severity, Change from Baseline, Max [1, 4]: 1.90 | SHAQ VAS Overall Disease Severity, Change from Baseline, Mean (SD) [1, 4]: −0.606 (1.1663) | SHAQ VAS Overall Disease Severity, Change from Baseline, Min [1, 4]: −1.90 | SHAQ VAS Overall Disease Severity, Change from Baseline, Q1 [1, 4]: −1.500 | SHAQ VAS Overall Disease Severity, Change from Baseline, Q3 [1, 4]: −0.300 | SHAQ VAS Overall Disease Severity, Day 12, Max [1, 4]: 6.00 | SHAQ VAS Overall Disease Severity, Day 12, Min [1, 4]: 0.00 | SHAQ VAS Overall Disease Severity, Day 12, Q1 [1, 4]: 0.800 | SHAQ VAS Overall Disease Severity, Day 12, Q3 [1, 4]: 3.800 | SHAQ VAS Overall Disease Severity, Percent Change from Baseline, Max [1, 4]: 100.0 | SHAQ VAS Overall Disease Severity, Percent Change from Baseline, Mean (SD) [1, 4]: −24.68 (57.343) | SHAQ VAS Overall Disease Severity, Percent Change from Baseline, Min [1, 4]: −100.0 | SHAQ VAS Overall Disease Severity, Percent Change from Baseline, Q1 [1, 4]: −51.01 | SHAQ VAS Overall Disease Severity, Percent Change from Baseline, Q3 [1, 4]: −16.76 | SHAQ Visual Analogue Scale - Overall Disease Severity, Change from Baseline, Median ([1]; Pooled Cilnidipine 20 mg and Cilnidipine 20 mg + Tadalafil 5 mg (N = 7), Day 12, Modified ITT Population - Part A): −1.500 | SHAQ Visual Analogue Scale - Overall Disease Severity, In-Clinic Visit (Day 12), Median ([1]; Pooled Cilnidipine 20 mg and Cilnidipine 20 mg + Tadalafil 5 mg (N = 7), Modified ITT Population - Part A): 1.200 | SHAQ VAS Overall Disease Severity, Change from Baseline, Max [1, 5]: −0.40 | SHAQ VAS Overall Disease Severity, Change from Baseline, Min [1, 5]: −3.10 | SHAQ VAS Overall Disease Severity, Change from Baseline, Q1 [1, 5]: −1.750 | SHAQ VAS Overall Disease Severity, Change from Baseline, Q3 [1, 5]: −0.650 | SHAQ VAS Overall Disease Severity, Day 12, Max [1, 5]: 7.30 | SHAQ VAS Overall Disease Severity, Day 12, Median [1, 5]: 1.300 | SHAQ VAS Overall Disease Severity, Day 12, Min [1, 5]: 0.50 | SHAQ VAS Overall Disease Severity, Day 12, Q1 [1, 5]: 0.800 | SHAQ VAS Overall Disease Severity, Day 12, Q3 [1, 5]: 1.750 | SHAQ VAS Overall Disease Severity, Percent Change from Baseline, Max [1, 5]: −9.9 | SHAQ VAS Overall Disease Severity, Percent Change from Baseline, Min [1, 5]: −76.2 | SHAQ VAS Overall Disease Severity, Percent Change from Baseline, Q1 [1, 5]: −64.44 | SHAQ VAS Overall Disease Severity, Percent Change from Baseline, Q3 [1, 5]: −36.22 | SHAQ Visual Analogue Scale - Overall Disease Severity, Change from Baseline, Mean [1, 6]: −1.214 | SHAQ Visual Analogue Scale - Overall Disease Severity, Percent Change from Baseline, Mean [1, 6]: −59.80% | SHAQ Visual Analogue Scale - Overall Disease Severity, Percent Change from Baseline, Median [1, 6]: −55.86% | SHAQ Visual Analogue Scale - Overall Disease Severity, In-Clinic Visit (Day 12), Mean ([1]; Pooled Cilnidipine (N = 7), Modified ITT Population - Part A): 1.486 | SHAQ Visual Analogue Scale - Overall Disease Severity, In-Clinic Visit (Day 12), Mean (SD) [1, 7]: 1.475 (1.6430) | SHAQ Visual Analogue Scale - Overall Disease Severity, In-Clinic Visit (Day 12), Median [1, 7]: 1.300 | % change overall SSc Disease Severity ([1]; Pooled Cilnidipine (n = 7)): −60% (i.e., | SHAQ VAS Overall Disease Severity, Change from Baseline, Max ([1]; Pooled Cilnidipine, PP, Part A): 0.20 | SHAQ VAS Overall Disease Severity, Change from Baseline, Mean (SD) ([1]; Pooled Cilnidipine, PP, Part A): −1.450 (0.9928) | SHAQ VAS Overall Disease Severity, Change from Baseline, Median ([1]; Pooled Cilnidipine, PP, Part A): −1.550 | SHAQ VAS Overall Disease Severity, Change from Baseline, Min ([1]; Pooled Cilnidipine, PP, Part A): −3.10 | SHAQ VAS Overall Disease Severity, Change from Baseline, Q1 ([1]; Pooled Cilnidipine, PP, Part A): −1.850 | SHAQ VAS Overall Disease Severity, Change from Baseline, Q3 ([1]; Pooled Cilnidipine, PP, Part A): −0.950 | SHAQ VAS Overall Disease Severity, Day 12, Max ([1]; Pooled Cilnidipine, PP, Part A): 5.20 | SHAQ VAS Overall Disease Severity, Day 12, Median ([1]; Pooled Cilnidipine, PP, Part A): 1.300 | SHAQ VAS Overall Disease Severity, Day 12, Min ([1]; Pooled Cilnidipine, PP, Part A): 0.00 | SHAQ VAS Overall Disease Severity, Day 12, Q1 ([1]; Pooled Cilnidipine, PP, Part A): 0.350 | SHAQ VAS Overall Disease Severity, Day 12, Q3 ([1]; Pooled Cilnidipine, PP, Part A): 1.650 | SHAQ VAS Overall Disease Severity, Percent Change from Baseline, Max ([1]; Pooled Cilnidipine, PP, Part A): −26.8 | SHAQ VAS Overall Disease Severity, Percent Change from Baseline, Mean (SD) ([1]; Pooled Cilnidipine, PP, Part A): −61.10 (23.658) | SHAQ VAS Overall Disease Severity, Percent Change from Baseline, Median ([1]; Pooled Cilnidipine, PP, Part A): −60.00 | SHAQ VAS Overall Disease Severity, Percent Change from Baseline, Min ([1]; Pooled Cilnidipine, PP, Part A): −100.0 | SHAQ VAS Overall Disease Severity, Percent Change from Baseline, Q1 ([1]; Pooled Cilnidipine, PP, Part A): −76.19 | SHAQ Visual Analogue Scale - Overall Disease Severity: Change from Baseline, Median [1, 8]: −1.500 | SHAQ Visual Analogue Scale - Overall Disease Severity: In-Clinic Visit (Day 12), Median [1, 8]: 1.900 | SHAQ Visual Analogue Scale - Overall Disease Severity: In-Clinic Visit (Day 12), Median ([1]; Sensitivity Analysis (diagnosis of SSc), Modified ITT, Part A, Day 12, arms Cilnidipine 20 mg, Cilnidipine 20 mg + Tadalafil 5 mg): 1.200 | VAS Overall Severity Change from Baseline Max [1, 9]: 0.20 | VAS Overall Severity Change from Baseline Mean [1, 9]: −0.900 | VAS Overall Severity Change from Baseline Median [1, 9]: −0.950 | VAS Overall Severity Change from Baseline Min [1, 9]: −1.90 | VAS Overall Severity Change from Baseline Q1 [1, 9]: −1.700 | VAS Overall Severity Change from Baseline Q3 [1, 9]: −0.100 | VAS Overall Severity Day 12 Max [1, 9]: 5.20 | VAS Overall Severity Day 12 Min [1, 9]: 0.00 | VAS Overall Severity Day 12 Q1 [1, 9]: 0.100 | VAS Overall Severity Day 12 Q3 [1, 9]: 3.550 | VAS Overall Severity Percent Change from Baseline Max [1, 9]: −26.8% | VAS Overall Severity Percent Change from Baseline Mean [1, 9]: −56.96% | VAS Overall Severity Percent Change from Baseline Median [1, 9]: −44.12% | VAS Overall Severity Percent Change from Baseline Min [1, 9]: −100.0% | VAS Overall Severity Percent Change from Baseline Q1 [1, 9]: −100.00% | VAS Overall Severity Percent Change from Baseline Q3 [1, 9]: −26.76% | VAS Overall Severity Change from Baseline Max [1, 10]: −1.50 | VAS Overall Severity Change from Baseline Mean [1, 10]: −1.633, | VAS Overall Severity Change from Baseline Median [1, 10]: −1.600 | VAS Overall Severity Change from Baseline Min [1, 10]: −1.80 | VAS Overall Severity Change from Baseline Q1 [1, 10]: −1.800 | VAS Overall Severity Change from Baseline Q3 [1, 10]: −1.500 | VAS Overall Severity Day 12 Max [1, 10]: 1.40 | VAS Overall Severity Day 12 Median [1, 10]: 1.200 | VAS Overall Severity Day 12 Min [1, 10]: 0.50 | VAS Overall Severity Day 12 Q1 [1, 10]: 0.500 | VAS Overall Severity Day 12 Q3 [1, 10]: 1.400 | VAS Overall Severity Percent Change from Baseline Max [1, 10]: −51.7% | VAS Overall Severity Percent Change from Baseline Mean [1, 10]: −62.64% | VAS Overall Severity Percent Change from Baseline Median [1, 10]: −60.00% | VAS Overall Severity Percent Change from Baseline Min [1, 10]: −76.2% | VAS Overall Severity Percent Change from Baseline Q1 [1, 10]: −76.19% | VAS Overall Severity Percent Change from Baseline Q3 [1, 10]: −51.72% | SHAQ Visual Analogue Scale - Breathing Problems, Change from Baseline, Mean (SD) [2]: 0.025 (1.2310)
